Results as given in US20250295686A1, “COMBINATION DECITABINE AND MPS1 INHIBITOR THERAPY TO PRIME CANCER IMMUNOGENICITY” (Dana-Farber Cancer Institute, Inc., priority 2021, published 2025).
Entries after “also recorded” stand apart in the source; their conditions may differ.

Assays:
[1] = system: H1944 cells; experiment: Cell viability assay to determine an IC50 (CellTiter-Glo); assay type: cell-based, human
Text: Due to their particular hypersensitivity, H1944 cells were utilized as a model system in which to conduct an unbiased screen of cytotoxic chemotherapies or targeted DNA-damaging agents for their ability to upregulate endogenous 2′3′-cGAMP production following pulse treatment, including cGAS-deficient H2122 cells as a counter-screen (FIGS. 3A and 3B). […] Additionally, hydroxyurea or nocodazole were included as controls to induce S-phase or M-phase cell cycle arrest. The IC50 was identified for each compound for cell viability in H1944 cells, and this concentration was utilized for the screen (FIG. 4A and Table 1). It was shown that each agent induced cellular cytotoxicity and/or DNA-damage response at this concentration, as measured by the induction of propidium iodide positive cells, cleaved PARP fragments, or histone TH2A.X expression (FIGS. 4B and 4C).
3000 cells were plated onto 96-well plates, and then cultured for 72 hours in the presence of each DNA-damaging agent at the indicated concentration. Values of CellTiter-Glo Luminescent Cell Viability assay (Promega) […] were normalized to vehicle treated cells. Plates were read on a Tecan Infinite M200 Pro plate reader and analysis was performed using Prism7 (GraphPad Software). All conditions were tested in triplicate.

[2] = system: KL NSCLC cell lines; experiment: CXCL10 ELISA after exogenous CDN exposure, KL NSCLC cell lines; assay type: cell-based, human; conditions: 24 hours
Text: Treatment with 2′3′-cGAMP or ADU-S100 was utilized to examine the sensitivity of KP or KL NSCLC cell lines to exogenous CDN exposure. […] KL cell response to extracellular CDNs was still modest as compared with endothelial cells (HUVEC) or monocytic THP-1 cells, which also have different membrane permeabilities (FIG. 2C) (Cordova et al., 2021; Luteijn et al., 2019; Ritchie et al., 2019).
(§1) Human IFN-β (Thermo Fisher Scientific, Cat. #414101), human CXCL10 (R&D systems, Cat. #DIP100), mouse CXCL10 (R&D systems, Cat. #DY466), and 2′3′-cGAMP (Cayman Chemical, Cat. #501700) ELISAs were performed according to the manufacturer's instructions. Conditioned media from each cell lines was collected after 24 hour culture. Values represent the average of four replicates from at least two independent experiments (biological replicates).

[3] = system: H1944 cells; experiment: Cell cycle analysis through propidium iodide staining; assay type: cell-based, human; conditions: 48 hours, 200 nM CFI-402257, 2.5 μM cisplatin, 5 μM etoposide, 500 nM pemetrexed, 50 μM hydroxyurea
Text: For cell cycle analysis, cells were stained by BD CycleTEST™ Plus DNA according to the manufacturer's instructions, and then analyzed by FACSCanto 11 (BD Biosciences). For cell viability analysis, cells were stained by propidium iodide (PI) according to the manufacturer's instructions of Annexin V using Alexa Fluor 488 Annexin V dead cell apoptosis kit (Thermo Fisher Scientific, Cat. #V13245) and then analyzed by FACSCanto 11 (BD Biosciences).

[4] = system: 393P-KL cells; experiment: Efficacy studies in 393P-KL syngeneic model (129S2/SvPasCrl mice); assay type: in vivo, mouse; conditions: after 12 weeks; decitabine day 1-7 and/or BAY-1217389 day 8, 9, 21, 22; durable response = tumor volume less than 250 mm^3 for at least 50 days after treatment
Experimental: To test this, an efficacy study was performed utilizing the same short-term pulse regimen of the sequential therapy with DAC/MPS1i in 393P-KL syngeneic model. […] Additionally, to further assess the role of an intact immune system, immune-deficient NSG mice were used.

[5] = system: STING pathway; experiment: Immunoblot of STING downstream signaling in H1944 cells treated with MPS1 inhibitors; assay type: cell-based, human; conditions: 100 nM BAY-1217389, 250 nM CC-671, compared with 200 nM CFI-402257
Experimental: It was also shown that MPS1 inhibitor-induced cellular cytotoxicity was dependent upon intact STING and STAT1 (FIG. 3K).
On the other hand, reconstitution of STING in STING^absent KL cells such as A549 and H23 cells also sensitized them to MPS1 inhibition, leading to CXCL10 secretion and STAT1 activation (FIGS. 3J, 4H). It was determined that MPS1 inhibitor-induced cellular cytotoxicity and growth arrest in KL cells required activation of STING signaling following 48-hour pulse treatment, and to a lesser degree during continuous 96 hour SAC inhibition, which is also capable of arresting KP cells (FIGS. 3K, 4I-4K). […] Phosphorylation of TBK1 and IFN-β secretion, which are upstream of IFNAR1, were also attenuated by IFNAR1 depletion (FIGS. 3L, 4M, and 4N).
(§2) Cells were lysed in RIPA buffer containing 1× protease inhibitors (Roche, Cat #11-836-145-001) and phosphatase inhibitors (50 mmol/L NaF and 100 mmol/L Na3VO4). […] Imaging of blots and quantitation of bands was performed using the LICOR Odyssey system, or LAS-3000 (Fujifilm).

[6] = system: STING pathway; experiment: Pre-treatment with epigenetic inhibitor followed by pulse MPS1i in STING^Low KL cells (ELISA, immunoblot, immunofluorescence); assay type: cell-based, human
Text: However, since KL cells epigenetically silence STING, unleashing STING expression might robustly sensitize them to MPS1 inhibition, including cell lines with baseline STING absence. Pre-treatment with the EZH2 inhibitor GSK126, which is able to de-repress STING in STING^Low KL cells lines, H1944, and H1355 cells, was explored (Kitajima et al., 2019) (FIGS. 8B and 8C).
as §1, §2
After being grown on chamber slides (CellTreat, Cat #229168) and subjected to various treatment conditions, cells were fixed and permeabilized according to standard protocols. […] Slides were imaged with the Nikon Eclipse 80i microscope, and colocalization was determined using CoLoc2 in ImageJ.

[7] = Homo sapiens, NCI-H1944, 72 hours with drug

SMILES | IC50 [1, 7] | also measured
O=C(c1cc(Cc2n[nH]c(=O)c3ccccc23)ccc1F)N1CCN(C(=O)C2CC2)CC1 [olaparib] | 27700 nM | 
CC[C@@H]1C(=O)N(C)c2cnc(Nc3ccc(C(=O)N[C@H]4CC[C@H](N5CCN(CC6CC6)CC5)CC4)cc3OC)nc2N1C(C)C [volasertib] | 8.46 nM | 
C[C@@H]1COCCN1c1cc(C2([S@](C)(=N)=O)CC2)nc(-c2cc[nH]c3nccc2-3)n1 [ceralasertib] | 1080 nM | 
Nc1nc2c(ncn2[C@@H]2O[C@@H]3COP(=O)(O)O[C@H]4[C@@H](O)[C@H](n5cnc6c(N)ncnc65)O[C@@H]4COP(=O)(O)O[C@@H]2[C@@H]3O)c(=O)[nH]1 [2′3′-cGAMP, 2′3′-cyclic GMP-AMP] |  | CXCL10 secretion, STING^Absent KL cell lines ([2]; A549, H23, A427, up to 100 μM): failed to respond; CXCL10 secretion, STING^Low KL cells ([2]; H1944, H2122, H647, H1355, 3.125-100 μM): dose-dependent manner
CN(Cc1cnc2nc(N)nc(N)c2n1)c1ccc(C(=O)N[C@@H](CCC(=O)O)C(=O)O)cc1 [methotrexate] | 160 nM | 
N.N.[Cl][Pt][Cl] [cisplatin] |  | IC50 ([1]; 72 hours with drug): 3270 nM; cell cycle status [3]: strongly induced G2/M-arrest
CCN(CCCOc1ccc2c(Nc3cc(CC(=O)Nc4cccc(F)c4)n[nH]3)ncnc2c1)CCOP(=O)(O)O [barasertib] | 160 nM | 
Nc1ncn([C@H]2C[C@H](O)[C@@H](CO)O2)c(=O)n1 [decitabine] |  | durable, long-term response [4]: 2/8
CNC(=O)c1ccc(Nc2nc(OC3CCCC3)c3c(-c4ccc5nc(C)oc5c4)c[nH]c3n2)c(OC)c1 [CC-671] |  | STING downstream signaling, cGAS-dependent (immunoblot) [5]: upregulated to the same extent; also recorded: induced similar cGAS dependent activation of STING signaling
COC(=O)Nc1nc2ccc(C(=O)c3cccs3)cc2[nH]1 [nocodazole] | 60.1 nM | 
NC(=O)NO [hydroxyurea] | 34600 nM | cell cycle status [3]: induced S-phase arrest
COc1cccc(OCCCN)c1-c1cc(Nc2cnc(C#N)cn2)n[nH]1 [prexasertib] | 11.3 nM | 
COc1ccc(Oc2cc(NCCC(F)(F)F)c3ncc(-c4ccc(C(=O)NC5CC5)c(C)c4)n3n2)c(F)c1F [BAY-1217389] |  | STING downstream signaling, cGAS-dependent (immunoblot) [5]: upregulated to the same extent; also recorded: induced similar cGAS dependent activation of STING signaling; durable, long-term response [4]: 0 mice
COc1cc([C@@H]2c3cc4c(cc3[C@@H](O[C@@H]3O[C@@H]5CO[C@@H](C)O[C@H]5[C@H](O)[C@H]3O)[C@H]3COC(=O)[C@H]23)OCO4)cc(OC)c1O [etoposide] | 4720 nM | 
Nc1nc2[nH]cc(CCc3ccc(C(=O)N[C@@H](CCC(=O)O)C(=O)O)cc3)c2c(=O)[nH]1 [pemetrexed] | 612 nM | cell cycle status [3]: induced S-phase arrest
CC[C@H](C)n1cc(C)c2c(C(=O)NCc3c(C)cc(C)[nH]c3=O)cc(-c3ccc(N4CCNCC4)nc3)cc21 [GSK126] |  | STING levels ([6]; H1944 cells, 5 μM GSK126 combination with 200 nM CFI-402257): upregulated STING levels; CXCL10 and IFN-β secretion induced by pulse MPS1i treatment after pre-treatment ([6]; H1944 or H1355 cells, 5 μM GSK126 pre-treatment, then 200 nM CFI-402257 or 100 nM BAY-1217389): markedly enhanced
CCC1=C[C@@H]2CN(C1)Cc1c([nH]c3ccccc13)[C@@](C(=O)OC)(c1cc3c(cc1OC)N(C)[C@H]1[C@@](O)(C(=O)OC)[C@H](OC(C)=O)[C@]4(CC)C=CCN5CC[C@]31[C@@H]54)C2 [vinorelbine] | 22.2 nM | 

Continued, in another order:

IC50 [1, 7] | SMILES | also measured
68.5 nM | C=CCn1c(=O)c2cnc(Nc3ccc(N4CCN(C)CC4)cc3)nc2n1-c1cccc(C(C)(C)O)n1 [MK1775] | 
254 nM | Cc1cc(-c2cnn3c(NC[C@H]4C[C@@](C)(O)C4)cc(Oc4cccnc4)nc23)ccc1C(=O)NC1CC1 [CFI-402257] | 
3920 nM | O=C(O)[C@]1(Cc2cccc(Nc3nccs3)n2)CC[C@@H](Oc2cccc(Cl)c2F)CC1 [MK5108] | 
